Assay results taken from ChEMBL document CHEMBL3046154, “Synthesis and biological activity of 2-(4,5-dihydroisoxazol-5-yl)-1,3,4-oxadiazoles” (2009).

Experiments:
Type in all cases: functional
Set-up in all cases: concentration or dose not given beside the values
Spodoptera exigua = assay: Insecticidal activity against Spodoptera exigua assessed as mortality
Zymoseptoria tritici = assay: Antifungal activity against Zymoseptoria tritici assessed as disease control
Pyricularia oryzae = assay: Antifungal activity against Magnaporthe oryzae assessed as disease control

Compound: CC1(c2nnc(-c3ccc(Cl)cc3)o2)CC(c2ccncc2)=NO1 (stereo not drawn)
- Activity (Spodoptera exigua): 0%
- Activity (Zymoseptoria tritici): 70%
- Activity (Pyricularia oryzae): 30%

Compound: CC1(c2nnc(-c3ccc(Cl)cc3)o2)CC(c2ccc(Cl)cc2)=NO1 (stereo not drawn)
- Activity (Spodoptera exigua): 17%
- Activity (Zymoseptoria tritici): 0%
- Activity (Pyricularia oryzae): 50%

Compound: CC1(c2nnc(Cc3ccccc3)o2)CC(c2ccc([N+](=O)[O-])cc2)=NO1 (stereo not drawn)
- Activity (Spodoptera exigua): 17%
- Activity (Zymoseptoria tritici): 30%
- Activity (Pyricularia oryzae): 30%

Compound: Clc1cccc(C2=NOC(c3nnc(-c4ccccc4)o3)C2)c1 (stereo not drawn)
- Activity (Spodoptera exigua): 0%
- Activity (Zymoseptoria tritici): 0%
- Activity (Pyricularia oryzae): 30%

Compound: Clc1cccc(Cl)c1C1=NOC(c2nnc(-c3ccccc3)o2)C1 (stereo not drawn)
- Activity (Spodoptera exigua): 17%
- Activity (Zymoseptoria tritici): 30%
- Activity (Pyricularia oryzae): 40%

Compound: Fc1ccc(C2=NOC(c3nnc(-c4ccccc4)o3)C2)cc1 (stereo not drawn)
- Activity (Spodoptera exigua): 17%
- Activity (Zymoseptoria tritici): 0%
- Activity (Pyricularia oryzae): 30%

Compound: CC1(c2nnc(-c3ccc(Cl)cc3)o2)CC(c2cccc(Cl)c2)=NO1 (stereo not drawn)
- Activity (Spodoptera exigua): 50%
- Activity (Zymoseptoria tritici): 10%
- Activity (Pyricularia oryzae): 50%

Compound: CC1(c2nnc(-c3cccc(Cl)c3)o2)CC(c2cccc(Cl)c2)=NO1 (stereo not drawn)
- Activity (Spodoptera exigua): 33%
- Activity (Zymoseptoria tritici): 0%
- Activity (Pyricularia oryzae): 30%

Compound: c1ccc(-c2nnc(C3CC(c4ccncc4)=NO3)o2)cc1 (stereo not drawn)
- Activity (Spodoptera exigua): 0%
- Activity (Zymoseptoria tritici): 0%
- Activity (Pyricularia oryzae): 0%

Compound: CC1(c2nnc(-c3cccc(Cl)c3)o2)CC(c2ccccc2)=NO1 (stereo not drawn)
- Activity (Spodoptera exigua): 17%
- Activity (Zymoseptoria tritici): 10%
- Activity (Pyricularia oryzae): 40%

Compound: CC1(c2nnc(-c3ccc(Cl)cc3)o2)CC(c2ccc([N+](=O)[O-])cc2)=NO1 (stereo not drawn)
- Activity (Spodoptera exigua): 0%
- Activity (Zymoseptoria tritici): 40%
- Activity (Pyricularia oryzae): 30%

Compound: CC1(c2nnc(-c3cccc(Cl)c3)o2)CC(c2ccc(Cl)cc2)=NO1 (stereo not drawn)
- Activity (Spodoptera exigua): 50%
- Activity (Zymoseptoria tritici): 0%
- Activity (Pyricularia oryzae): 40%

Compound: Clc1ccc(C2=NOC(c3nnc(-c4ccccc4)o3)C2)cc1 (stereo not drawn)
- Activity (Spodoptera exigua): 17%
- Activity (Zymoseptoria tritici): 0%
- Activity (Pyricularia oryzae): 0%

Compound: CC1(c2nnc(Cc3ccccc3)o2)CC(c2c(Cl)cccc2Cl)=NO1 (stereo not drawn)
- Activity (Spodoptera exigua): 0%
- Activity (Zymoseptoria tritici): 0%
- Activity (Pyricularia oryzae): 0%

Compound: CC1(c2nnc(-c3cccc(Cl)c3)o2)CC(c2ccc(F)cc2)=NO1 (stereo not drawn)
- Activity (Spodoptera exigua): 0%
- Activity (Zymoseptoria tritici): 10%
- Activity (Pyricularia oryzae): 50%

Compound: CC1(c2nnc(-c3cccc(Cl)c3)o2)CC(c2c(Cl)cccc2Cl)=NO1 (stereo not drawn)
- Activity (Spodoptera exigua): 50%
- Activity (Zymoseptoria tritici): 0%
- Activity (Pyricularia oryzae): 50%
